Laboratory results as given in patent publication US9815850B2, “Compounds, compositions and methods” (Denali Therapeutics Inc., priority 2016, dated 2017).
Read-outs that look alike come from different tables or passages of the source.

Assays:
[1] = in vivo
[2] = tested on: FADD-deficient Jurkat cells; assay: Cellular necroptosis assay (human TNFα-induced); assay type: cell-based; conditions: read-out: Cell IC50
Description: Ten concentrations of the test compounds were assessed in duplicate in two different test occasions. […] The day of the experiment cells were diluted to a density of […] (5,000 cells/well) with culture medium and added (40 μL) into the 384-well plate containing 0.2 μL/well of test compounds and reference compounds (CRCs) (200×). Cell plates were then incubated at 37° C.-5% CO2. After 30 min, necroptotic cell death was induced with human TNFα (10 ng/mL) and cell viability was evaluated 48 h later by measuring cellular ATP levels using CellTiter-Glo® kit (Promega). Luminescence was read by using Victor V (Perkin Elmer) multilabel plate reader.

[3] = target: P-gp (P-glycoprotein, MDR1) (Homo sapiens (Human), UniProt P08183); assay: MDCKII-MDR1 permeability, efflux ratio; assay type: in vitro ADME; conditions: dog, MDCK-MDR1, pH 7.4, MDCKII-MDR1 cells, read-out: ER MDR1
Description: The blood brain barrier (BBB) separates circulating blood from the extracellular fluid of the central nervous system (CNS). The passive membrane permeability (Papp) and the P-gp (P-glycoprotein) substrate efflux potential were determined using the MDCKII-MDR1 cell line as an in vitro model of the effective permeability of a compound through the BBB. A bidirectional assay (Apical to Basolateral (A→B) and Basolateral to Apical (B→A)), in the absence and in the presence of GF120918 (a P-gp inhibitor) was conducted using pre-plated MDCKII-MDR1 cells (Corning HTS Transwell-96) obtained from SOLVO Biotechnology. The assay was run at 3 μM for 90 min (minutes) in triplicate using a HBSS+12.5 mM HEPES pH 7.4 transport buffer. Following incubation of samples from donor and receiver, wells were removed and measured by LC-MS/MS. Samples were extracted by protein precipitation with acetonitrile containing an appropriate internal standard (IS) having a known mass and molecular weight. The precipitate was centrifuged for 10 min at 3000 rpm (revolutions per minute). The supernatants were then collected, diluted if necessary, and injected on to the LC-MS/MS system. […] Papp (apparent permeability expressed in nm/sec [nanometer/second]) values were calculated according to the following equation: […]
Where dQ/dt is the permeability rate, C0 is the initial concentration in the donor solution (expressed as IS ratio), A and B are the surface areas of the filter (the surface area of the cell monolayer).
Monolayer efflux ratios (ER) were derived using the following equation: […]

[4] = cynomolgus monkey, in vivo
GST-hRIPK1 (8-327) = GST-hRIPK1 (8-327) (Homo sapiens (Human), UniProt Q13546); assay: Fluorescent Polarization Binding (FP Binding) assay; conditions: 10 nM GST-hRIPK1 (8-327), 5 nM fluorescent labeled ligand; read-out: FP IC50
Description: Fluorescent Polarization Binding (FP Binding) assay (Berger S. B. et al. […] Maki J. L. et al. […] Test Compounds were serially diluted in DMSO at 100 fold final concentrations in the assay (1% DMSO final). […] For negative control the enzyme addition was replaced by assay buffer only. After addition of 5 μL of fluorescent labeled ligand at twice the final concentrations in assay buffer, the plate was incubated at RT for 30 min.

[5] = male, Sprague-Dawley Crl:CD(SD)
[6] = human TNFα 10 ng/mL, viability after 48 h
[7] = Homo sapiens, 48 h, human TNFα 10 ng/mL, viability after 48 h

P-gp (P-glycoprotein, MDR1), sequence (P08183 whole entry): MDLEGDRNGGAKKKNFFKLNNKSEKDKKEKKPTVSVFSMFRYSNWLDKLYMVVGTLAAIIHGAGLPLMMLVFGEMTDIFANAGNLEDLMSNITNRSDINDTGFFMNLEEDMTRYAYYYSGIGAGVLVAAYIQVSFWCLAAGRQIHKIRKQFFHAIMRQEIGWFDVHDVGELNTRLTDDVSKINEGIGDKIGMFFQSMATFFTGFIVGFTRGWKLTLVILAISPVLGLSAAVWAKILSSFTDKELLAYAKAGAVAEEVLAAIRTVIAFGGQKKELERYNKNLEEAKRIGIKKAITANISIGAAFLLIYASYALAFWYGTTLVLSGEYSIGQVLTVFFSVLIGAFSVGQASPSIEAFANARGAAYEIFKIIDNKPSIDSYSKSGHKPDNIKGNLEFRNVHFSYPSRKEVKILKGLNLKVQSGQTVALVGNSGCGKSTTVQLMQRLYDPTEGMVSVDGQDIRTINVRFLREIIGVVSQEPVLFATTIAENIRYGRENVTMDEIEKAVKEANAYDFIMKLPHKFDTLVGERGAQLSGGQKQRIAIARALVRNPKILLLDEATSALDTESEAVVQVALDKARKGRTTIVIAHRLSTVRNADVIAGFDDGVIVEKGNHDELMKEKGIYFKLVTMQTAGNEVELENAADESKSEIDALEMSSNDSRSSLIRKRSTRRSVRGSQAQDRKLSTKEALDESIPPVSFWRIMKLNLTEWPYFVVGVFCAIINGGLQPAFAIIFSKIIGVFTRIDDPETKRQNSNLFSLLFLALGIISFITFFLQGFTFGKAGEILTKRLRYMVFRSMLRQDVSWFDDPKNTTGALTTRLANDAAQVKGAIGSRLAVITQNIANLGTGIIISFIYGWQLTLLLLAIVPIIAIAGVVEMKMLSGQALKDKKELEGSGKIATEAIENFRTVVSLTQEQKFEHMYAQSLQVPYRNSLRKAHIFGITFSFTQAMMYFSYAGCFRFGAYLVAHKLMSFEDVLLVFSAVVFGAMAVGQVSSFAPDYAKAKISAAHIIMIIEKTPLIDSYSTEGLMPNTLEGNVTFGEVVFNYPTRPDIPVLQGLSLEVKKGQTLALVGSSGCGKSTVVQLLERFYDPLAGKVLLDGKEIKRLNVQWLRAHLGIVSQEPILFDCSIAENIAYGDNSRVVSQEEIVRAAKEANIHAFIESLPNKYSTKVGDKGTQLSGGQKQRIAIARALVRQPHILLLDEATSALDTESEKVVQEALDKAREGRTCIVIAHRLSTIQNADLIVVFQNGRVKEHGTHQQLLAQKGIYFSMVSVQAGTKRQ
GST-hRIPK1 (8-327), sequence (Q13546 8-327): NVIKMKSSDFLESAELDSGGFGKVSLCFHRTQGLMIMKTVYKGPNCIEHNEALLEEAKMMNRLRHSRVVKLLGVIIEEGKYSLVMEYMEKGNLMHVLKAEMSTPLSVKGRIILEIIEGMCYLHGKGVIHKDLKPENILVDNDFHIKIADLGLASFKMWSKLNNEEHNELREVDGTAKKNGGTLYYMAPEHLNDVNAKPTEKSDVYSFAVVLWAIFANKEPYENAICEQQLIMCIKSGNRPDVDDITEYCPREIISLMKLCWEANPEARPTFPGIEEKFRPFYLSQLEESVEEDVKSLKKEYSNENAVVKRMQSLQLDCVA

Row | SMILES | IC50 (GST-hRIPK1 (8-327)) | IC50 [2, 7] | further results
1 | CN1C(=O)[C@@H](NC(=O)c2cc(C3(c4ccccc4)CC3)on2)COc2ccccc21 [Example 8, (S)-N-(5-methyl-4-oxo-2,3,4,5-tetrahydrobenzo[b][1,4]oxazepin-3-yl)-5-(1-phenylcyclopropyl)isoxazole-3-carboxamide] |  |  | Rat unbound CL [1, 5]: 3700 mL/min/kg; IC50 [2, 6]: 4 nM; efflux ratio at 90 min, 3 μM [3]: 0.8
2 | CN1C(=O)[C@@H](NC(=O)c2cc(Cc3ccccc3)on2)CC2(CC2)c2ccccc21 [Example 9, (S)-5-benzyl-N-(1-methyl-2-oxo-1,2,3,4-tetrahydrospiro[benzo[b]azepine-5,1′-cyclopropan]-3-yl)isoxazole-3-carboxamide] |  |  | IC50 [2, 6]: 8 nM
3 | CN1C(=O)[C@@H](NC(=O)c2nc(Cc3ccccc3)n[nH]2)COc2cccnc21 [Example 42, (S)-5-benzyl-N-(5-methyl-4-oxo-2,3,4,5-tetrahydropyrido[3,2-b][1,4]oxazepin-3-yl)-4H-1,2,4-triazole-3-carboxamide] |  |  | IC50 ([2]; Homo sapiens, 48 h): 0.6 nM
4 | CN1C(=O)[C@@H](NC(=O)c2nnc(Cc3ccccc3)[nH]2)[C@H]2C[C@H]2c2ccccc21 [Example 46A] |  |  | Rat unbound CL [1]: 188 mL/min/kg
5 | C[C@H]1Oc2cccnc2N(C)C(=O)[C@H]1NC(=O)c1nn(Cc2ccccc2)cc1F [Example 92, 1-benzyl-N-((2R,3S)-2,5-dimethyl-4-oxo-2,3,4,5-tetrahydropyrido[3,2-b][1,4]oxazepin-3-yl)-4-fluoro-1H-pyrazole-3-carboxamide] |  | 0.7 nM | Rat unbound CL [1, 5]: 420 mL/min/kg; efflux ratio at 90 min, 3 μM [3]: 1.4
6 | C[C@H]1Oc2cccnc2N(C)C(=O)[C@H]1NC(=O)c1nnc(Cc2ccccc2)[nH]1 [Example 94, 5-benzyl-N-((2R,3S)-2,5-dimethyl-4-oxo-2,3,4,5-tetrahydropyrido[3,2-b][1,4]oxazepin-3-yl)-4H-1,2,4-triazole-3-carboxamide] |  | 6 nM | Cyno unbound CL ([4]; male): 40 mL/min/kg; Rat unbound CL [1, 5]: 44 mL/min/kg; efflux ratio at 90 min, 3 μM [3]: 14
7 | C[C@H]1Oc2cccnc2N(C)C(=O)[C@H]1NC(=O)c1nnc(Cc2ccccc2)o1 [Example 134, 5-Benzyl-N-((2R,3S)-2,5-dimethyl-4-oxo-2,3,4,5-tetrahydropyrido[3,2-b][1,4]oxazepin-3-yl)-1,3,4-oxadiazole-2-carboxamide] |  | 3 nM | Cyno unbound CL ([4]; male): 140 mL/min/kg; Rat unbound CL [1, 5]: 100 mL/min/kg; efflux ratio at 90 min, 3 μM [3]: 1.1
8 | CN1C(=O)[C@@H](NC(=O)c2cc(Cc3ccccc3)on2)COc2cccnc21 [Example 142, (S)-5-Benzyl-N-(5-methyl-4-oxo-2,3,4,5-tetrahydropyrido[3,2-b][1,4]oxazepin-3-yl)isoxazole-3-carboxamide] |  | 0.7 nM | 
9 | CN1C(=O)[C@@H](NC(=O)c2nnc(Cc3cccc(C#N)c3)[nH]2)COc2cccnc21 [Example 161, (S)-5-(3-cyanobenzyl)-N-(5-methyl-4-oxo-2,3,4,5-tetrahydropyrido[3,2-b][1,4]oxazepin-3-yl)-4H-1,2,4-triazole-3-carboxamide] |  | 2 nM | 
10 | CN1C(=O)[C@@H](NC(=O)c2nnc(Cc3cccc(C#N)c3)[nH]2)COc2ccccc21 [Example 163, (S)-5-(3-cyanobenzyl)-N-(5-methyl-4-oxo-2,3,4,5-tetrahydrobenzo[b][1,4]oxazepin-3-yl)-4H-1,2,4-triazole-3-carboxamide] |  | 1 nM | 
11 | CN1C(=O)[C@@H](NC(=O)c2ncn(Cc3cccc(C#N)c3)n2)COc2cccnc21 [Example 171, (S)-1-(3-cyanobenzyl)-N-(5-methyl-4-oxo-2,3,4,5-tetrahydropyrido[3,2-b][1,4]oxazepin-3-yl)-1H-1,2,4-triazole-3-carboxamide] |  |  | Rat unbound CL [1, 5]: 32 mL/min/kg
12 | C[C@H]1Oc2cccnc2N(C)C(=O)[C@H]1NC(=O)c1ncn(Cc2cccc(C#N)c2)n1 [Example 172, 1-(3-cyanobenzyl)-N-((2R,3S)-2,5-dimethyl-4-oxo-2,3,4,5-tetrahydropyrido[3,2-b][1,4]oxazepin-3-yl)-1H-1,2,4-triazole-3-carboxamide] |  | 1 nM | Rat unbound CL [1, 5]: 65 mL/min/kg
13 | CN1C(=O)[C@@H](NC(=O)c2nnc(Cc3ccccc3)o2)[C@H]2C[C@H]2c2nccnc21 [Example 177A] |  |  | Cyno unbound CL [4]: 58 mL/min/kg; Rat unbound CL [1]: 55 mL/min/kg
14 | C[C@H]1Oc2ncccc2N(C)C(=O)[C@H]1NC(=O)c1nnc(Cc2ccccc2)o1 [Example 193, 5-benzyl-N-((3S,4R)-1,4-dimethyl-2-oxo-1,2,3,4-tetrahydropyrido[2,3-b][1,4]oxazepin-3-yl)-1,3,4-oxadiazole-2-carboxamide] |  | 210 nM | 
15 | CN1C(=O)[C@@H](NC(=O)c2cn(Cc3ccccc3)nn2)[C@H]2C[C@H]2c2nccnc21 [Example 195, 1-benzyl-N-((7S,7aS,8aR)-5-methyl-6-oxo-5,6,7,7a,8,8a-hexahydrocyclopropa[d]pyrazino[2,3-b]azepin-7-yl)-1H-1,2,3-triazole-4-carboxamide] |  | 16 nM | 
16 | CN1C(=O)[C@@H](NC(=O)c2cc(Cc3ccccc3)on2)[C@H]2C[C@H]2c2nccnc21 [Example 197, 5-benzyl-N-((7S,7aS,8aR)-5-methyl-6-oxo-5,6,7,7a,8,8a-hexahydrocyclopropa[d]pyrazino[2,3-b]azepin-7-yl)isoxazole-3-carboxamide] |  | 3 nM | 
17 | [2H]C([2H])([2H])N1C(=O)[C@@H](NC(=O)c2nn(Cc3ccccc3)cc2F)[C@@H](C)Oc2ncccc21 [Example 205, 1-benzyl-N-((3S,4R)-1-trideuteriomethyl-4-methyl-2-oxo-1,2,3,4-tetrahydropyrido[2,3-b][1,4]oxazepin-3-yl)-4-fluoro-1H-pyrazole-3-carboxamide] |  | 21 nM | 
18 | CN1C(=O)[C@@H](NC(=O)c2nnc(Cc3ccc(F)cc3)o2)[C@H]2C[C@H]2c2nccnc21 [Example 223, 5-(4-fluorobenzyl)-N-((7S,7aS,8aR)-5-methyl-6-oxo-5,6,7,7a,8,8a-hexahydrocyclopropa[d]pyrazino[2,3-b]azepin-7-yl)-1,3,4-oxadiazole-2-carboxamide] | 0.1 to 1000 nM |  | 
19 | CN1C(=O)[C@@H](NC(=O)c2ncc(Cc3ccccn3)o2)[C@H]2C[C@H]2c2nccnc21 [Example 226] | 0.1 to 1000 nM |  | 
20 | CN1C(=O)[C@@H](NC(=O)c2ncc(C(F)(F)c3ccccc3)o2)[C@H]2C[C@H]2c2nccnc21 [Example 227] | 0.1 to 1000 nM |  | 

Second part, led by results:

Row | IC50 (GST-hRIPK1 (8-327)) | SMILES | IC50 [2, 7] | further results
21 | 0.1 to 1000 nM | COc1cccc(Cn2cc(F)c(C(=O)N[C@H]3COc4ccccc4N(C)C3=O)n2)n1 [Example 220, (S)-4-fluoro-1-((6-methoxypyridin-2-yl)methyl)-N-(5-methyl-4-oxo-2,3,4,5-tetrahydrobenzo[b][1,4]oxazepin-3-yl)-1H-pyrazole-3-carboxamide] |  | 
22 | 0.1 to 1000 nM | C[C@H]1Oc2cccnc2N(C)C(=O)[C@H]1NC(=O)c1nnc(C(F)(F)c2ccccc2)o1 [Example 221, 5-(difluoro(phenyl)methyl)-N-((2R,3S)-2,5-dimethyl-4-oxo-2,3,4,5-tetrahydropyrido[3,2-b][1,4]oxazepin-3-yl)-1,3,4-oxadiazole-2-carboxamide] |  | 
23 | 0.1 to 1000 nM | C[C@H]1Oc2cccnc2N(C)C(=O)[C@H]1NC(=O)c1noc(Cc2ccccc2)n1 [Example 222, 5-benzyl-N-((2R,3S)-2,5-dimethyl-4-oxo-2,3,4,5-tetrahydropyrido[3,2-b][1,4]oxazepin-3-yl)-1,2,4-oxadiazole-3-carboxamide] |  | 
24 | 0.1 to 1000 nM | CN1C(=O)[C@@H](NC(=O)c2nn(Cc3ncccn3)cc2F)COc2ccccc21 [Example 224, (S)-4-fluoro-N-(5-methyl-4-oxo-2,3,4,5-tetrahydrobenzo[b][1,4]oxazepin-3-yl)-1-(pyrimidin-2-ylmethyl)-1H-pyrazole-3-carboxamide] |  | 
25 | 0.1 to 1000 nM | CN1C(=O)[C@@H](NC(=O)c2nnc(Cc3ccccc3)o2)CCc2ccccc21 [Example 225, (S)-5-benzyl-N-(1-methyl-2-oxo-2,3,4,5-tetrahydro-1H-benzo[b]azepin-3-yl)-1,3,4-oxadiazole-2-carboxamide] |  | 
